3 compounds from ChEMBL document CHEMBL6121035, “An Unexpected Activity of a Minor Cannabinoid: Cannabicyclol (CBL) Is a Potent Positive Allosteric Modulator of Serotonin 5-HT1A Receptor” (J Nat Prod, 2025) can be followed below.

Active and inactive are the calls of the source. No cut-off for these calls is given here.

The target of data set [1] is T1, 5-hydroxytryptamine receptor 1A (Homo sapiens) (UniProt P08908).
T1 sequence (whole entry): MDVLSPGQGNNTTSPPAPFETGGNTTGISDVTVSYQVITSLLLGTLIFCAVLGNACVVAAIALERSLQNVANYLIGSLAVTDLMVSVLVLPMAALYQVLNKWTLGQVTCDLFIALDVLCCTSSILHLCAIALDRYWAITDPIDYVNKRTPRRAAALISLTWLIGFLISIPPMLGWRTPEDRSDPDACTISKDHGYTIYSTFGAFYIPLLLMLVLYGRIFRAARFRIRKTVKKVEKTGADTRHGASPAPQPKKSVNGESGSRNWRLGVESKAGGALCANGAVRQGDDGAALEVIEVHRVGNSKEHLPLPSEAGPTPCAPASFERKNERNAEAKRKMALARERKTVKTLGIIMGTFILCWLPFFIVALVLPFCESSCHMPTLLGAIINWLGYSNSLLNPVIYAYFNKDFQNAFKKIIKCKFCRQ
Kind of data set: Positive allosteric modulation of N-terminal FLAG-tagged Rluc8-fused human 5-HT-1A expressed in HEK293T cells by BRET assay relative to control. It is filed as cell-based.

For data set [2], the target named is T1, 5-hydroxytryptamine receptor 1A (Homo sapiens). Kind of data set: Positive allosteric modulation of PK-tagged human 5-HT-1A receptor expressed in CHO-K1 cells assessed as receptor activation at > 10 uM in presence of serotonin at 175 nM preincubated with compound for 30 mins followed by serotonin addition and measured after 90 mins by measuring beta arrestin recruitment by chemiluminescence based envision reader analysis. It is filed as functional, cell-based. Background: Activated receptors often draw arrestin, which recruitment assays turn into a signal.

Data set [3] has the same target. Kind of data set: Displacement of [3H]-8-Hydroxy-DPAT from 5-HT-1A receptor (unknown origin) at 1 uM incubated for 90 mins by Radioligand binding assay relative to control. (Displacement assays read how much labelled ligand stays bound in the presence of the test substance.)
Data set [4] shares this target. Kind of data set: Positive allosteric modulation of PK-tagged human 5-HT-1A receptor expressed in CHO-K1 cells assessed as receptor activation at 12 uM in presence of serotonin preincubated with compound for 30 mins followed by serotonin addition and measured after 90 mins by measuring beta arrestin recruitment by chemiluminescence based envision reader analysis. The data set is classed as functional, cell-based.

Data set [5] has the same target. Kind of data set: Positive allosteric modulation of PK-tagged human 5-HT-1A receptor expressed in CHO-K1 cells assessed as receptor activation at 50 nM in presence of serotonin at 40 nM preincubated with compound for 30 mins followed by serotonin addition and measured after 90 mins by measuring beta arrestin recruitment by chemiluminescence based envision reader analysis. The data set is classed as functional, cell-based. The note with it: filed as positive allosteric modulator, time 120.0 min.

Data set [6] has the same target. Kind of data set: Agonist activity at PK-tagged human 5-HT-1A receptor expressed in CHO-K1 cells at > 0.5 uM incubated for 90 mins by measuring beta-arrestin recruitment by PathHunter assay. It is filed as functional, cell-based. The note with it: filed as agonist.
Data set [7] can be described thus: Stability of compound at 25 degreeC measured upto 2 months by HPLC-DAD analysis. The data set is classed as physicochemical. Particulars: 1460 h.
Data set [8] concerns the target T1, 5-hydroxytryptamine receptor 1A (Homo sapiens). Kind of data set: Positive allosteric modulation of PK-tagged human 5-HT-1A receptor expressed in CHO-K1 cells assessed as receptor activation in presence of serotonin preincubated with compound for 30 mins followed by serotonin addition and measured after 90 mins by measuring beta arrestin recruitment by chemiluminescence based envision reader analysis. Particulars: filed as positive allosteric modulator, dose 0.6-12000 nM. The data set is classed as functional, cell-based.

Data set [9] has the same target. Kind of data set: Positive allosteric modulation of PK-tagged human 5-HT-1A receptor expressed in CHO-K1 cells assessed as receptor activation at 1 uM in presence of serotonin at 175 nM preincubated with compound for 30 mins followed by serotonin addition and measured after 90 mins by measuring beta arrestin recruitment by chemiluminescence based envision reader analysis relative to control. It is filed as functional, cell-based. Particulars: filed as positive allosteric modulator.

The nature of data set [10]: Stability of compound in MCT oil at 40 degreeC measured upto 2 months by HPLC-DAD analysis. It is filed as physicochemical. The note with it: 1460 h.
The target in data set [11] is Cannabinoid receptor 1 (Homo sapiens) (UniProt P21554). Kind of data set: Displacement of [3H]-CP55940 from cannabinoid CB1 receptor (unknown origin) at 1 to 10 uM incubated for 90 mins by Radioligand binding assay. The note with it: dose 1-10 µM.
Data set [12] addresses Cannabinoid receptor 2 (Homo sapiens) (UniProt P34972). Kind of data set: Displacement of [3H]-CP55940 from cannabinoid CB2 receptor (unknown origin) at 1 uM incubated for 90 mins by Radioligand binding assay.
The target in data set [13] is T1, 5-hydroxytryptamine receptor 1A (Homo sapiens). Kind of data set: Positive allosteric modulation of PK-tagged human 5-HT-1A receptor expressed in CHO-K1 cells assessed as receptor activation at 4 uM in presence of serotonin preincubated with compound for 30 mins followed by serotonin addition and measured after 90 mins by measuring beta arrestin recruitment by chemiluminescence based envision reader analysis relative to control. It is filed as functional, cell-based. Particulars: filed as positive allosteric modulator.

Data set [14] deals with Spike glycoprotein (Severe acute respiratory syndrome coronavirus 2, UniProt P0DTC2). Kind of data set: Inhibition of SARS-COV-2 spike protein.
Data set [15] addresses T1, 5-hydroxytryptamine receptor 1A (Homo sapiens). Kind of data set: Agonist activity at PK-tagged human 5-HT-1A receptor expressed in CHO-K1 cells at 12 uM incubated for 90 mins by measuring beta-arrestin recruitment by PathHunter assay relative to control. The data set is classed as functional, cell-based.

Sequence of Cannabinoid receptor 1 (Homo sapiens) (P21554 whole entry): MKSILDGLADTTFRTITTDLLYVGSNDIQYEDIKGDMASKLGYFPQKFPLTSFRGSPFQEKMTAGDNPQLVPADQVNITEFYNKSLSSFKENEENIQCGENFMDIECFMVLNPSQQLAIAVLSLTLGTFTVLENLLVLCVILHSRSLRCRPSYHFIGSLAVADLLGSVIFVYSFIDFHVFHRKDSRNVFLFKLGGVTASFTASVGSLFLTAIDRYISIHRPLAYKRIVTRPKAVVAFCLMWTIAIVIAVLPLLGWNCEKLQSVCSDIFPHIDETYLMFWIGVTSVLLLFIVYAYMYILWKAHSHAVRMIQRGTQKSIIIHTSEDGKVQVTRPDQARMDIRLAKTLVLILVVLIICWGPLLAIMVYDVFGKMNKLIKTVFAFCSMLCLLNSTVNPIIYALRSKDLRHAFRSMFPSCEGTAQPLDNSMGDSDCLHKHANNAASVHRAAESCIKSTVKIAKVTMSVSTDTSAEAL
Sequence of Cannabinoid receptor 2 (Homo sapiens) (P34972 whole entry): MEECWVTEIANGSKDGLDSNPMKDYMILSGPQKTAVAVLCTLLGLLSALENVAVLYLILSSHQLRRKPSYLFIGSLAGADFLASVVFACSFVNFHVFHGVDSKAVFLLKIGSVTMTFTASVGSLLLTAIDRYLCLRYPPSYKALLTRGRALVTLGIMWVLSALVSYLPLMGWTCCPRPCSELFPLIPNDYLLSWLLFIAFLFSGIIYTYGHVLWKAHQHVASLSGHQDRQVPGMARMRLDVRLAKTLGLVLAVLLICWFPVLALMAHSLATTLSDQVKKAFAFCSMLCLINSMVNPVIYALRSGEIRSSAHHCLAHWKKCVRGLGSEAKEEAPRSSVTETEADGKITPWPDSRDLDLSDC

For `CCCCCn1cc(C(=O)c2cccc3ccccc23)c2ccccc21`, the Activity in data set [1] is 12%.

Compound `O=C(c1cccc2ccccc12)c1cn(CCCCCF)c2ccccc12` had an Activity in data set [1] of 21%.

The term EC50 denotes the concentration needed to bring the measured effect to its halfway point. A high value points to weaker potency. Regarding `CCCCCc1cc(O)c2c(c1)OC1(C)CCC3C1C2C3(C)C` (racemic) [CANNABICYCLOL], the outcome in [2], in data set [4], in [11] and in data set [12] was inactive. The Activity in data set [3] is 20%; in data set [6] it was “Active; Minimal Agonist Activity Observed”; in data set [8] it was “Dose-dependent-effect”; in [9], 100%; in [13], 80%; in [15], 15%. Further, in data set [5], the result was Active. Further, the Stability entry in [7] and in data set [10] was “Stable” each time. In data set [14], this compound gave an EC50 of 10.8 µM.
